The results in this text go back to patent US4948782A, “A method of promoting the growth of domestic animals with erythromycin derivative containing composition” (Kitasato Kenkyusho, priority 1987, dated 1990).

A word on the MIC: it is the lowest concentration found to suppress growth.

Assay type in all cases: cell-based
The test system of one experiment is Bacillus cereus IFO 3001. The experiment is described as follows: MIC, Bacillus cereus IFO 3001 (BC). As to conditions: for MIC: Bacillus cereus, IFO3001, Bacillus cereus IFO 3001, read-out: MIC BC.
In experiment [1] the test system is Staphylococcus aureus FDA 209P. Nature of the experiment: MIC, Staphylococcus aureus FDA 209P (SA(2)). As to conditions: Staphylococcus aureus FDA 209P; for MIC: Staphylococcus aureus, FDA209P, read-out: MIC SA (2). From the text:
(§1) The minimum inhibitory concentrations (MIC: mcg/ml) of the erythromycin derivatives of the present invention and the control erythromycin derivative (*) as the known growth promoting agent on typical test bacteria are shown in the following Tables 1 to 5.
SA(2): Staphylococcus aureus FDA 209P

Another experiment concerns Bacillus subtilis. The experiment is described as follows: MIC, Bacillus subtilis (BS). The settings on record: for MIC: read-out: MIC BS.
In another experiment the test system is Escherichia coli NIHJ. Nature of the experiment: MIC, Escherichia coli NIHJ (EC).
In experiment [2] the test system is Klebsiella pneumoniae ATCC 10031. The experiment is described as follows: MIC, Klebsiella pneumoniae ATCC 10031 (KP). As to conditions: Klebsiella pneumoniae ATCC 10031; for MIC: ATCC10031, read-out: MIC KP.
Experiment [3] concerns Staphylococcus aureus ATCC 6538P. Nature of the experiment: MIC, Staphylococcus aureus ATCC 6538P (SA(1)). The settings on record: Staphylococcus aureus ATCC 6538P; for MIC: Staphylococcus aureus, ATCC6538P, read-out: MIC SA (1).
Description: as §1
SA(1): Staphylococcus aureus ATCC 6538P

In the case of `CCC1OC(=O)C(C)C(OC2CC(C)(OC)C(O)C(C)O2)C(C)C(OC2OC(C)CC(N(C)CCO)C2O)C2(C)CC(C)=C(O2)C(C)C(O)C1(C)O` (stereo not drawn) [Compound 37], the MIC (in the experiment on Bacillus cereus IFO 3001; in experiment [1]; in the experiment with Bacillus subtilis; against Escherichia coli NIHJ; in experiment [2]; in experiment [3]) was above 100 µg/mL in each case.

As to `C=CCN(CC=C)C1CC(C)OC(OC2C(C)C(OC3CC(C)(OC)C(O)C(C)O3)C(C)C(=O)OC(CC)C(C)(O)C(O)C(C)C3=C(C)CC2(C)O3)C1O` (stereo not drawn) [Compound 38], the MIC (in the experiment on Bacillus cereus IFO 3001; in experiment [1]; in the experiment with Bacillus subtilis; against Escherichia coli NIHJ; in experiment [2]; in experiment [3]) was above 100 µg/mL each time.

For `C=CCNC1CC(C)OC(OC2C(C)C(OC3CC(C)(OC)C(O)C(C)O3)C(C)C(=O)OC(CC)C(C)(O)C(O)C(C)C3=C(C)CC2(C)O3)C1O` (stereo not drawn) [Compound 39], the MIC (with Bacillus cereus IFO 3001; in experiment [1]; in the experiment on Bacillus subtilis; with Escherichia coli NIHJ; in experiment [2]; in experiment [3]) was above 100 µg/mL in each case.

`C#CCN(CC#C)C1CC(C)OC(OC2C(C)C(OC3CC(C)(OC)C(O)C(C)O3)C(C)C(=O)OC(CC)C(C)(O)C(O)C(C)C3=C(C)CC2(C)O3)C1O` (stereo not drawn) [Compound 40]: the MIC (with Bacillus cereus IFO 3001; in experiment [1]; with Bacillus subtilis; against Escherichia coli NIHJ; in experiment [2]; in experiment [3]) was above 100 µg/mL throughout.

Regarding `C#CCNC1CC(C)OC(OC2C(C)C(OC3CC(C)(OC)C(O)C(C)O3)C(C)C(=O)OC(CC)C(C)(O)C(O)C(C)C3=C(C)CC2(C)O3)C1O` (stereo not drawn) [Compound 41], the MIC (in the experiment with Bacillus cereus IFO 3001; in experiment [1]; in the experiment with Bacillus subtilis; in the experiment with Escherichia coli NIHJ; in experiment [2]; in experiment [3]) was above 100 µg/mL each time.

As for `C#CCN(CC=C)C1CC(C)OC(OC2C(C)C(OC3CC(C)(OC)C(O)C(C)O3)C(C)C(=O)OC(CC)C(C)(O)C(O)C(C)C3=C(C)CC2(C)O3)C1O` (stereo not drawn) [Compound 42], the MIC (with Bacillus cereus IFO 3001; in experiment [1]; in the experiment with Bacillus subtilis; with Escherichia coli NIHJ; in experiment [2]; in experiment [3]) was above 100 µg/mL in each case.

Take `C=CC[N+](C)(CC=C)C1CC(C)OC(OC2C(C)C(OC3CC(C)(OC)C(O)C(C)O3)C(C)C(=O)OC(CC)C(C)(O)C(O)C(C)C3=C(C)CC2(C)O3)C1O` (stereo not drawn) [Compound 43]: the minimum inhibitory concentration (MIC) in the experiment on Bacillus cereus IFO 3001 was above 100 µg/mL; in experiment [1], 100 µg/mL; with Bacillus subtilis, above 100 µg/mL; in the experiment with Escherichia coli NIHJ it was above 100 µg/mL; in experiment [2] it was above 100 µg/mL; in experiment [3], 100 µg/mL.

`C#CC[N+](C)(CC=C)C1CC(C)OC(OC2C(C)C(OC3CC(C)(OC)C(O)C(C)O3)C(C)C(=O)OC(CC)C(C)(O)C(O)C(C)C3=C(C)CC2(C)O3)C1O` (stereo not drawn) [Compound 44]: the MIC was above 100 µg/mL in the experiment with Bacillus cereus IFO 3001; 100 µg/mL in experiment [1]; above 100 µg/mL in the experiment on Bacillus subtilis; above 100 µg/mL against Escherichia coli NIHJ; above 100 µg/mL in experiment [2]; above 100 µg/mL in experiment [3].

On to `C#CC[N+](C)(CC#C)C1CC(C)OC(OC2C(C)C(OC3CC(C)(OC)C(O)C(C)O3)C(C)C(=O)OC(CC)C(C)(O)C(O)C(C)C3=C(C)CC2(C)O3)C1O` (stereo not drawn) [Compound 45], for which the MIC in the experiment with Bacillus cereus IFO 3001 is above 100 µg/mL; in experiment [1] it was 100 µg/mL; in the experiment with Bacillus subtilis, above 100 µg/mL; with Escherichia coli NIHJ it was above 100 µg/mL; in experiment [2] it was above 100 µg/mL; in experiment [3], 100 µg/mL.

Consider `C=CC[N+](CC=C)(CC=C)C1CC(C)OC(OC2C(C)C(OC3CC(C)(OC)C(O)C(C)O3)C(C)C(=O)OC(CC)C(C)(O)C(O)C(C)C3=C(C)CC2(C)O3)C1O` (stereo not drawn) [Compound 46], for which the MIC (with Bacillus cereus IFO 3001; in experiment [1]; with Bacillus subtilis; in the experiment on Escherichia coli NIHJ; in experiment [2]; in experiment [3]) was above 100 µg/mL throughout.

Regarding `C#CC[N+](CC=C)(CC=C)C1CC(C)OC(OC2C(C)C(OC3CC(C)(OC)C(O)C(C)O3)C(C)C(=O)OC(CC)C(C)(O)C(O)C(C)C3=C(C)CC2(C)O3)C1O` (stereo not drawn) [Compound 47], the MIC in the experiment on Bacillus cereus IFO 3001 was 50 µg/mL; in experiment [1] it was 100 µg/mL; with Bacillus subtilis, 100 µg/mL; with Escherichia coli NIHJ it was above 100 µg/mL; in experiment [2] it was above 100 µg/mL; in experiment [3], 100 µg/mL.

For the molecule `C#CC[N+](CC#C)(CC#C)C1CC(C)OC(OC2C(C)C(OC3CC(C)(OC)C(O)C(C)O3)C(C)C(=O)OC(CC)C(C)(O)C(O)C(C)C3=C(C)CC2(C)O3)C1O` (stereo not drawn) [Compound 48], the MIC in the experiment on Bacillus cereus IFO 3001 was 100 µg/mL; in experiment [1], 100 µg/mL; in the experiment on Bacillus subtilis, 100 µg/mL; against Escherichia coli NIHJ, above 100 µg/mL; in experiment [2], above 100 µg/mL; in experiment [3], 100 µg/mL.

Regarding `CCCC[N+](C)(C)C1CC(C)OC(OC2C(C)C(OC3CC(C)(OC)C(O)C(C)O3)C(C)C(=O)OC(CC)C(C)(O)C(O)C(C)C3=C(C)CC2(C)O3)C1O` (stereo not drawn) [Compound 49], the MIC in the experiment on Bacillus cereus IFO 3001 was above 100 µg/mL; in experiment [1], 100 µg/mL; with Bacillus subtilis, above 100 µg/mL; in the experiment with Escherichia coli NIHJ it was above 100 µg/mL; in experiment [2] it was above 100 µg/mL; in experiment [3], 100 µg/mL.

Take `C#CC[N+](C)(C)C1CC(C)OC(OC2C(C)C(OC3CC(C)(OC)C(O)C(C)O3)C(C)C(=O)OC(CC)C(C)(O)C(O)C(C)C3=C(C)CC2(C)O3)C1O` (stereo not drawn) [Compound 51]: the “MIC BC” value with Bacillus cereus IFO 3001 (Bacillus cereus IFO 3001) is above 100 µg/mL. Moreover, the “MIC SA (2)” value in experiment [1] was above 100 µg/mL. In addition, the “MIC BS” value in the experiment with Bacillus subtilis was above 100 µg/mL. For the same molecule, the “MIC EC” value in the experiment on Escherichia coli NIHJ is above 100 µg/mL. Also, in experiment [2], the “MIC KP” value is above 100 µg/mL. The “MIC SA (1)” value in experiment [3] is above 100 µg/mL.

`CCC1OC(=O)C(C)C(OC2CC(C)(OC)C(O)C(C)O2)C(C)C(OC2OC(C)CC(NC)C2O)C2(C)CC(C)=C(O2)C(C)C(OC(C)=O)C1(C)OC(C)=O` (stereo not drawn) [Compound 52]: the MIC (with Bacillus cereus IFO 3001; in experiment [1]; with Bacillus subtilis; in the experiment on Escherichia coli NIHJ; in experiment [2]; in experiment [3]) was above 100 µg/mL throughout.

For `CCC1OC(=O)C(C)C(OC2CC(C)(OC)C(O)C(C)O2)C(C)C(OC2OC(C)CC(N(C)CC)C2O)C2(C)CC(C)=C(O2)C(C)C(OC(C)=O)C1(C)OC(C)=O` (stereo not drawn) [Compound 53], the MIC (in the experiment on Bacillus cereus IFO 3001; in experiment [1]; in the experiment on Bacillus subtilis; against Escherichia coli NIHJ; in experiment [2]; in experiment [3]) was above 100 µg/mL each time.

As for `CCC1OC(=O)C(C)C(OC2CC(C)(OC)C(O)C(C)O2)C(C)C(OC2OC(C)CC(N(C)CC)C2O)C2(C)CC(C)=C(O2)C(C)C2OC(=O)OC12C` (stereo not drawn) [Compound 54], the MIC (with Bacillus cereus IFO 3001; in experiment [1]; with Bacillus subtilis; in the experiment with Escherichia coli NIHJ; in experiment [2]; in experiment [3]) was above 100 µg/mL each time.

Regarding `C#CC[N+](C)(C)C1CC(C)OC(OC2C(C)C(OC3CC(C)(OC)C(O)C(C)O3)C(C)C(=O)OC(CC)C3(C)OC(C)(C)OC3C(C)C3=C(C)CC2(C)O3)C1O` (stereo not drawn) [Compound 55], the MIC was 12.5 µg/mL in the experiment on Bacillus cereus IFO 3001; 12.5 µg/mL in experiment [1]; 12.5 µg/mL in the experiment on Bacillus subtilis; above 100 µg/mL against Escherichia coli NIHJ; above 100 µg/mL in experiment [2]; 12.5 µg/mL in experiment [3].

For `C#CC[N+](C)(C)C1CC(C)OC(OC2C(C)C(OC3CC(C)(OC)C(O)C(C)O3)C(C)C(=O)OC(CC)C3(C)OB(c4ccccc4)OC3C(C)C3=C(C)CC2(C)O3)C1O` (stereo not drawn) [Compound 56], the minimum inhibitory concentration (MIC) was 100 µg/mL with Bacillus cereus IFO 3001; 100 µg/mL in experiment [1]; 50 µg/mL in the experiment on Bacillus subtilis; above 100 µg/mL in the experiment with Escherichia coli NIHJ; above 100 µg/mL in experiment [2]; 50 µg/mL in experiment [3].

With `C#CC[N+](C)(C)C1CC(C)OC(OC2C(C)C(OC3CC(C)(OC)C(O)C(C)O3)C(C)C(=O)OC(CC)C3(C)OC(=O)OC3C(C)C3=C(C)CC2(C)O3)C1O` (stereo not drawn) [Compound 57], the MIC with Bacillus cereus IFO 3001 is 25 µg/mL; in experiment [1], 50 µg/mL; with Bacillus subtilis, 50 µg/mL; against Escherichia coli NIHJ, above 100 µg/mL; in experiment [2], above 100 µg/mL; in experiment [3] it was 25 µg/mL.

For `CC[C@H]1OC(=O)[C@H](C)[C@@H](O[C@H]2C[C@@](C)(OC)[C@@H](OC=O)[C@H](C)O2)[C@H](C)[C@@H](O[C@@H]2O[C@H](C)C[C@H]([N+](C)(C)C)[C@H]2O)[C@@]2(C)CC(C)=C(O2)[C@H](C)[C@@H](O)[C@]1(C)O` [Compound 58], the MIC (in the experiment on Bacillus cereus IFO 3001; in experiment [1]; with Bacillus subtilis; in the experiment with Escherichia coli NIHJ; in experiment [2]; in experiment [3]) was above 100 µg/mL each time.

For the molecule `CC[C@H]1OC(=O)[C@H](C)[C@@H](O[C@H]2C[C@@](C)(OC)[C@@H](OC=O)[C@H](C)O2)[C@H](C)[C@@H](O[C@@H]2O[C@H](C)C[C@H]([N+](C)(C)CC)[C@H]2O)[C@@]2(C)CC(C)=C(O2)[C@H](C)[C@@H](O)[C@]1(C)O` [Compound 59], the MIC (in the experiment on Bacillus cereus IFO 3001; in experiment [1]; with Bacillus subtilis; against Escherichia coli NIHJ; in experiment [2]; in experiment [3]) was above 100 µg/mL each time.
